Assay results taken from PubChem BioAssay (NCI).
“And” between values parts separate entries of the source, which are not always exact repeats. Equal entries are not always repeated.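 Exposure lasted 48 hours, with cells grown in 96-well plates and compounds tested at five concentrations. GI50 marks 50% less growth. TGI: total growth inhibition.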

Legend:
Assay in all cases: growth of human tumour cells (NCI), 48 h
CAKI-1 renal = test system: CAKI-1 renal
NCI-H23 lung = test system: NCI-H23 lung
TK-10 renal = test system: TK-10 renal
PC-3 prostate = test system: PC-3 prostate
HCC-2998 colon = test system: HCC-2998 colon
OVCAR-3 ovarian = test system: OVCAR-3 ovarian
MDA-MB-231 breast = test system: MDA-MB-231 breast
A498 renal = test system: A498 renal
UACC-257 melanoma = test system: UACC-257 melanoma
NCI-H460 lung = test system: NCI-H460 lung
RXF 393 renal = test system: RXF 393 renal
HOP-92 NSCLC = test system: HOP-92 NSCLC
K-562 leukemia = test system: K-562 leukemia

Compound | TGI (CAKI-1 renal) | TGI (NCI-H23 lung) | TGI (TK-10 renal) | TGI (PC-3 prostate) | TGI (HCC-2998 colon) [µM] | TGI (OVCAR-3 ovarian) | TGI (MDA-MB-231 breast) | TGI (A498 renal) [µM] | TGI (UACC-257 melanoma) | TGI (NCI-H460 lung) | TGI (RXF 393 renal) [µM] | TGI (HOP-92 NSCLC) [µM] | TGI (K-562 leukemia) [µM] | GI50 (CAKI-1 renal) [µM] | GI50 (NCI-H460 lung) [µM]
CCCCSC1=N/C(=C\c2ccc(N(C)C)cc2)C(Cl)=N1 | > 100 µM | > 100 µM | > 100 µM | > 100 µM | > 100 | > 100 µM | > 100 µM | > 100 | > 100 µM | > 100 µM | > 100 | > 100 | > 100 |  | 
O=C(Nc1nccs1)NS(=O)(=O)n1cnc2ccccc21 | > 100 µM | > 100 µM | > 100 µM | > 100 µM | > 100 | > 100 µM | > 100 µM | > 100 | > 100 µM | > 100 µM | > 100 | > 100 |  |  | 
Fc1cc2nc3n(c2cc1F)C(c1c(Cl)cccc1Cl)SC3 (stereo unspecified) | 27.1 µM | 35.7 µM | 32.2 µM | 31.3 µM | 29.3 | 25.7 µM | 34.6 µM | 34.6 | 27 µM | 26.6 µM | 28.5 | 30.8 |  |  | 
Nc1nc(Cl)c(C=O)c(NCC2(CO)CCC2)n1 | 33.9 µM | > 100 µM | > 100 µM | 34.6 µM | 22.9 | 42.9 µM | 81.5 µM | 67.7 | > 100 µM | > 100 µM | 50.1 | 31.1 | 31.7 |  | 
C[C@H]1[C@H](C)CC[C@]2(C(=O)OC3OC(CO)C(O)C(O)C3O)CC[C@]3(C)C(=CC[C@@H]4[C@@]5(C)C[C@@H](O)[C@@H]6OC(=O)c7cc(O)c(O)c(O)c7-c7c(cc(O)c(O)c7O)C(=O)OC[C@]6(CO)[C@@H]5CC[C@]43C)[C@H]12 (stereo partly specified) | > 53.3 µM | > 100 µM | > 100 µM | > 100 µM | > 100 | > 72.1 µM | 26.4 µM | > 100 | > 100 µM | > 100 µM | > 100 | > 100 | > 100 |  | 
O=C(N[C@@H](Cc1ccccc1)B(O)O)[C@H](Cc1cccc2ccccc12)NC(=O)N1CCOCC1 | 0.048 µM and 0.18 µM | 0.00899 µM and 0.0101 µM | 0.154 µM and 0.413 µM | 0.106 µM and 0.134 µM | 0.00339 | 0.00255 µM and 0.0196 µM | 0.00745 µM and 0.0232 µM | 0.212 | 0.0065 µM and 0.0397 µM | 0.106 µM and 0.0579 µM | 0.00379 | 0.00744 | 0.0852 | 0.0228 | 0.0172
CC(C)C[C@H](NC(=O)CCc1cccc2ccccc12)B(O)O | 3.94 µM | 7.81 µM | 12.4 µM | 29.3 µM | 2.62 | 1.86 µM | 15.2 µM | 6.12 | 3.91 µM | 19.5 µM | 2.03 | 7.37 | 21.4 |  | 
Brc1ccc(C2CC3(c4ccccc4)ON=C(c4ccccc4)N3c3ccccc3S2)cc1 (stereo unspecified) |  | > 100 µM | > 100 µM | > 100 µM | > 100 | > 100 µM | > 100 µM | > 100 | > 100 µM | > 100 µM | > 100 | > 100 | > 100 |  | 
Nc1nc(Cc2ccccc2)nc(Cc2ccccc2)c1-c1ccccc1 | 96.1 µM | 45.2 µM | > 100 µM | 77.7 µM | > 100 | 37.2 µM | 49.1 µM | 46.7 | > 100 µM | > 100 µM | > 100 | 59.6 | > 100 |  | 
COc1ccc(NC(=O)CC(=O)N2N=C(C)C(N=Nc3ccc(C(=O)O)cc3)C2=O)cc1 (stereo unspecified) | > 100 µM | > 100 µM | > 100 µM | > 100 µM | > 100 | > 100 µM | > 100 µM | > 100 | > 100 µM | > 100 µM | > 100 | > 100 | > 100 |  | 
N#CC1=C(S)N(C2OC(CO)C(O)C(O)C2O)C(c2ccccc2)=CC1c1cccs1 (stereo unspecified) | 50.4 µM | > 100 µM | 48.2 µM | 30.8 µM | 44.8 | 80.2 µM | 63.5 µM | > 10 | 40.8 µM | 32.9 µM | 40 | 68.8 | > 100 |  | 
FC(F)(F)C1(c2ccccc2)SCc2nc3ccccc3n21 (stereo unspecified) | > 100 µM | > 100 µM | > 100 µM | > 100 µM | > 100 | > 100 µM | > 100 µM | > 100 | > 100 µM | > 100 µM | > 100 | > 100 | > 100 |  | 
CCSc1nc(C)nc2c1sc1nc3ccccc3n12 | > 100 µM | > 100 µM | > 100 µM | > 100 µM | > 100 | > 100 µM | > 100 µM | > 100 | > 100 µM | > 100 µM | > 100 | > 100 | > 100 |  | 
CC(C)C1=CC23CCC4C(C)(C(=O)O)CCCC4(C)C2CC1C1C(=O)N(c2cccc(N4C(=O)C5C6CC7C8(C)CCCC(C)(C(=O)O)C8CCC7(C=C6C(C)C)C5C4=O)c2)C(=O)C13 (stereo unspecified) |  | 12.2 µM | 30.4 µM | 17.9 µM | 20.3 | 25.7 µM | 39.2 µM | 26.7 |  |  | 27 | 39.6 | 96.1 |  | 
Cc1ccc(NC(=S)N=Nc2c(O)[nH]c3ccccc23)cc1 | > 100 µM | > 100 µM | > 100 µM | > 100 µM | > 100 | > 100 µM | > 100 µM | > 100 | > 100 µM | > 100 µM | > 100 | > 100 | > 100 |  | 
COC(=O)C1(Cc2ccc(C)cc2)Cc2c(C)cccc2C1=O (stereo unspecified) | > 100 µM | > 100 µM | 86.2 µM | 42 µM | 42.2 | 34.5 µM | > 100 µM | 41.8 | 91.3 µM | 39.2 µM | 40.5 | 43.9 | > 100 |  | 
COc1ccc2c(c1)C(=O)[C@@](Nc1ccc(C=O)cc1)(OC)[C@@](OC)(c1ccc([N+](=O)[O-])cc1)O2 | > 10 µM | > 10 µM | > 10 µM | > 10 µM | > 10 | > 10 µM | > 10 µM | > 10 | > 10 µM | > 10 µM | > 10 |  | > 10 |  | 
